Data from patent publication US9556437B2, “FAT1 gene in cancer and inflammation” (DEPARTMENT OF BIOTECHNOLOGY (DBT), priority 2012, dated 2017).
Entries after “also recorded” stand apart in the source; their conditions may differ.

What was measured:
Assay type in all cases: cell-based, human
COX-2 = assay: Western blot COX-2 protein; conditions: U87MGsiFAT1 vs siControl
Description: (§1) Western Blotting Analyses: Cells were lysed in triple detergent buffer containing protease and phosphatase inhibitors (Sigma Aldrich), lysates were quantified by BCA kit (Pierce, Thermo Fisher Scientific, Rockford, Ill. USA) and electrophoresed in 10% SDS-PAGE and electroblotted on nitrocellulose membrane (Millipore, Billerica, Mass., USA). Membrane was blocked with 5% bovine serum albumin (BSA) in 1×TBS at 4° C. for overnight. Primary and secondary antibody was diluted in 5% BSA and 0.1% tween-20 in 1×TBS. Blot was incubated in primary antibody overnight at 4° C. followed by secondary antibody incubation for 2 hrs at room temperature. Blot was developed by BCIP-NBT (Promega, Madison, Wis., USA) and captured using Alpha Imager EP software.

COX-2 promoter = COX-2 promoter luciferase assay; conditions: U87MG, vs siControl+DMSO; SR11302 10 μM, 48 hrs
Description: AP-1 and COX-2 Promoter Luciferase Assay: U87MG cells (40000 cells/well) were plated in 6-well plates in triplicate on day zero. On day 1, cells were transfected with siFAT1 and siControl. On day 2 cells were transiently transfected with 4×AP-1-luciferase reporter plasmids as described previously. Cells were transfected with 1 μg of AP-17× luciferase reporter plasmid, along with 50 ng of pRL-TK (Renilla luciferase) control plasmid using LIPOFECTAMINE2000 as the transfection reagent. After 48 hrs, the cells were lysed by 1× passive-lysis-buffer (Promega, Madison, Wis., USA) and assayed for luciferase activity as previously described. For COX-2 luciferase assay U87MG cells were transfected with siFAT1 and siControl on day 1 and after 4 hrs incubation were treated with 10 μM SR11302. On day2 cells were transiently transfected with COX-2 reporter plasmid and again treated with 10 μM SR11302. After 48 hrs, the cells were assayed for luciferase activity.

phospho-c-jun = assay: Western blot phospho-c-jun (Ser63); conditions: U87MGsiFAT1 vs siControl
Description: as §1

IL1β = IL1β mRNA expression by q-PCR; conditions: U87MGsiFAT1 vs siControl
Description: Cell Culture and siRNA Transfection: The human glioma cell lines U87MG, U373, A172, T98G, GOS3 and SW1088 were obtained from ATCC; Rockville, Md., cultured in DMEM (Sigma-Aldrich, Switzerland) supplemented with 10% (v/v) FCS (Sigma-Aldrich), 3.7 g/l sodium bicarbonate (Sigma-Aldrich), Ciprofloxacin 10 μg/ml and 5% CO2 at 37° C. For transfection, 2×10^5 cells were seeded per 25 cm^2 flask. After 24 hrs, cells were transfected with FAT1 siRNA and universal medium GC control siRNA (Invitrogen) according to the manufacturer's protocol with a final concentration of 20 nM of siRNA using LIPOFECTAMINE 2000 (Invitrogen) and Opti-Mem media (Invitrogen). After 4 hrs of siRNA transfection, the media was supplemented with DMEM containing 2×FCS. […] Photomicrographs of the cells were taken using an inverted phase contrast microscope (Nikon TMS, Phase contrast microscope, Japan). For simultaneous knockdown of FAT1 and PDCD4, siRNA from Dharmacon were used. Transfection was performed as earlier with 50 nM of FAT1 siRNA along with 50 nM of PDCD4 siRNA or 50 nM of control siRNA.
cDNA Synthesis and Quantitative PCR: Total RNA was isolated from cells at appropriate time point (vide supra) using TRIzol reagent (Invitrogen), quantified using a Nanodrop ND-1000 spectrophotometer.

U87MG cells = assay: MTT assay; conditions: 24, 48, 72 and 96 hrs of transfection, vs siControl
Description: On day 1, siRNA transfection was carried out. 1 ml of OPTIMEM, 50 picomoles of siRNA (siControl and siFAT1) and 3 μl of LIPOFECTAMINE 2000 was used per well. Cells were then analyzed by flow-cytometery after 72 hrs of transfection to assess the cell cycle distribution of individual cells. Cells were fixed in 70% ethanol overnight at −20′C followed by propidium iodide (PI) staining. Florescence was measured on FACS (florescence activated cell sorter, BD Biosciences, Bedford, Mass.). […] On day 1, transfection was carried out. 50 μl of OPTIMEM, 2 picomoles of siRNA (control and FAT1 siRNA) and 0.5 μl of LIPOFECTAMINE 2000 was used per well. After 4 hrs incubation at 37° C., 50 μl 2× media was added per well. After every time point (24, 48, 72 and 96 hrs of transfection), media was removed from wells and 100 μl of MTT (0.2 mg/ml) was added per well and incubated for 2-4 hrs. The formazan crystals formed were dissolved by addition of 100 μl of DMSO and absorbance was measured at 570 nm.

“siFAT1: FAT1 specific siRNA (Invitrogen), FAT Stealth RNAi siRNA-I (HSS103567), used for further experiments (sense CCCAACACACCUGUGGUCAUGGUAA; antisense UUACCAUGACCACAGGUGUGUUGGG; Stealth modification, chemistry not fully specified; listed as Homo sapiens)” was tested, and the COX-2 protein expression (COX-2) was “Significant reduction; also recorded: decreased”, the “decrease in COX-2 luciferase activity” value (COX-2 promoter) was 1.8 fold and the “c-jun phosphorylation (p-c-jun level)” value (phospho-c-jun) was “significantly decreased; also recorded: significant reduction”. The “reduction in IL1β mRNA expression” value (IL1β) was roughly 10 fold and the “cell viability / proliferation by MTT” value (U87MG cells) was “no variation; also recorded: No significant difference”.
